# Data from paper PMC11255275, “Structural insights into the triple agonism at GLP-1R, GIPR and GCGR manifested by retatrutide” (Cell Discovery, 2024).
# Like-named read-outs stand apart in the source and are kept apart here.
# Tests used:
# [1] = target: T1, GLP-1R (Homo sapiens, UniProt P43220); experiment: cAMP accumulation, wild-type GLP-1R; format: cell-based; conditions: GLP-1R WT, HEK-293T, TR-FRET, mean ± S.E.M.
# T1 construct: expressed in transfected cells; host or cells: HEK-293T
# Method: (§1) HEK-293T cells were maintained at 37°C in 5% CO2 incubator and seeded onto 6-well cell […]
# (§2) culture plates before transfection. After overnight culture, the cells were transiently transfected […]
# (§3) with various constructs using Lipofectamine 2000 transfection reagent (Invitrogen). After 24 h, […]
# (§4) the transfected cells were seeded onto 384-microtiter plates at a density of 3,000 cells per well […]
# (§5) in stimulation buffer (HBSS supplemented with 5 mM HEPES, 0.1% (w/v) casein and 0.5 mM […]
# (§6) 3-isobutyl-1-methylxanthine). Different concentrations of retatrutide in stimulation buffer were […]
# (§7) added, and the stimulation lasted for 40 min. The reaction was stopped by addition of cAMP […]
# (§8) detection buffer containing Eu-cAMP tracer and ULight-anti-cAMP. Plates were then incubated for […]
# (§9) 60 min at RT. Time-resolved FRET signals were measured at 620 nm and 665 nm, respectively, by […]
# (§10) an EnVision multilabel plate reader (PerkinElmer). Data were analyzed in GraphPad PRISM 9.5 […]
# (§11) and all values were normalized to that of the wild-type (WT). […]
# (§12) accumulation was measured in wild-type (WT) and single-point mutated GLP-1R, GIPR or […]
# (§13) of the WT and dose-response curves were analyzed using a three-parameter logistic equation. […]
# (§14) curves were analyzed using a three-parameter logistic equation to obtain pEC50 and Emax values. […]
# (§15) way ANOVA was used to determine statistical difference. N.D., values that could not be determined due […]
# [2] = cited from earlier work; for decrease in body weight (up to): single dose, ref Coskun T et al (supplement ref 17)
# From the text: For humans, events were mild, such as 50 1 ascending (PMID: 4 months ...
# [3] = target: T2, GLP-1R mutants (Homo sapiens, UniProt P43220, W39A); experiment: cAMP accumulation, single-point mutated GLP-1R; format: cell-based; conditions: GLP-1R W39(ECD)A, HEK-293T, 40 min, TR-FRET, mean ± S.E.M., n at least 3
# T2 construct: expressed in transfected cells; host or cells: HEK-293T
# T2 sequence (P43220 24-463 W39A): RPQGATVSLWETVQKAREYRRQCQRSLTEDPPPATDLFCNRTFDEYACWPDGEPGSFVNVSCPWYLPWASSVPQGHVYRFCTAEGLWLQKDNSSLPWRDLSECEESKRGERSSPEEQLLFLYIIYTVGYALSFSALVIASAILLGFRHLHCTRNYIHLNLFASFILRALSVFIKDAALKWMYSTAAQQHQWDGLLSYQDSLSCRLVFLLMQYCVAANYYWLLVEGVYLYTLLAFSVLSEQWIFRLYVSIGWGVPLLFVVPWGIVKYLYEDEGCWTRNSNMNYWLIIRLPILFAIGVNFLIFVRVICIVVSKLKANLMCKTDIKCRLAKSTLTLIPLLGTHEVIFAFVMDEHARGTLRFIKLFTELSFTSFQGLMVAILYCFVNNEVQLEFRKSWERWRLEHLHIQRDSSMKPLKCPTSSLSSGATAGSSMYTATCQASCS
# Method: as §1, §2, §3, §4, §5, §6, §7, §8, §9, §10
# (§16) and all values were normalized to that of the wild-type (WT).
# (§17) Supplementary Fig. 5 Effects of receptor mutation on retatrutide-induced cAMP […]
# (§18) accumulation. a-c, Signaling profiles of GLP-1R (a), GIPR (b) and GCGR (c) mutants. cAMP […]
# as §12
# (§19) GCGR expressing HEK-293T cells. cAMP levels were normalized to the maximum response […]
# (§20) of the WT and dose-response curves were analyzed using a three-parameter logistic equation.
# (§21) Data were generated and graphed as means ± S.E.M. of at least three independent experiments performed in quadruplicate.
# (§22) (1 picture or pasted object on this page, not shown here)
# (§23) Supplementary Ta b l e S 5 Effects of the ligand-binding pocket residue mutation on retatrutide- […]
# (§24) induced cAMP signaling at GLP-1R, GIPR or GCGR. […]
# (§25) cAMP levels were normalized to the maximum response of the wild-type (WT) and dose-response […]
# (§26) curves were analyzed using a three-parameter logistic equation to obtain pEC50 and Emax values. The […]
# (§27) experiments were carried out independently at least three times. Data shown are means ± S.E.M. One- […]
# as §15
# (§28) to incomplete curve fits. *P< 0.05, **P< 0.01, ***P< 0.001 and ****P<0.0001.
# [4] = target: T3, GLP-1R mutants (Homo sapiens, UniProt P43220, R299A); experiment: cAMP accumulation, single-point mutated GLP-1R; format: cell-based; conditions: GLP-1R R299(ECL2)A, HEK-293T, 40 min, TR-FRET, mean ± S.E.M., n at least 3
# T3 construct: expressed in transfected cells; host or cells: HEK-293T
# T3 sequence (P43220 24-463 R299A): as the sequence (P43220 24-463 W39A) above, with A16W, R276A counted along it
# Method: as §1, §2, §3, §4, §5, §6, §7, §8, §9, §10, §16, §17, §18, §12, §19, §20, §21, §22, §23, §24, §25, §26, §27, §15, §28
# [5] = tested on: GLP-1R mutants; experiment: cAMP accumulation, single-point mutated GLP-1R; format: cell-based, human; conditions: GLP-1R E138(1.33b)R, relative to WT
# Method: as §1, §2, §3, §4, §5, §6, §7, §8, §9, §10, §16, §17, §18, §12, §19, §20, §21, §22, §23, §24, §25, §26, §27, §15, §28
# [6] = target: T4, GLP-1R mutants (Homo sapiens, UniProt P43220, W91A); experiment: cAMP accumulation, single-point mutated GLP-1R; format: cell-based; conditions: GLP-1R W91(ECD)A, HEK-293T, 40 min, TR-FRET, mean ± S.E.M., n at least 3
# T4 construct: expressed in transfected cells; host or cells: HEK-293T
# T4 sequence (P43220 24-463 W91A): as the sequence (P43220 24-463 W39A) above, with A16W, W68A counted along it
# Method: as §1, §2, §3, §4, §5, §6, §7, §8, §9, §10, §16, §17, §18, §12, §19, §20, §21, §22, §23, §24, §25, §26, §27, §15, §28
# [7] = target: T5, GLP-1R mutants (Homo sapiens, UniProt P43220, E138R); experiment: cAMP accumulation, single-point mutated GLP-1R; format: cell-based; conditions: GLP-1R E138(1.33b)R; HEK-293T, 40 min, TR-FRET; mean ± S.E.M., n at least 3
# T5 construct: expressed in transfected cells; host or cells: HEK-293T
# T5 sequence (P43220 24-463 E138R): as the sequence (P43220 24-463 W39A) above, with A16W, E115R counted along it
# Method: as §1, §2, §3, §4, §5, §6, §7, §8, §9, §10, §16, §17, §18, §12, §19, §20, §21, §22, §23, §24, §25, §26, §27, §15, §28
# [8] = target: T6, GLP-1R mutants (Homo sapiens, UniProt P43220, E387A); experiment: cAMP accumulation, single-point mutated GLP-1R; format: cell-based; conditions: GLP-1R E387(7.42b)A; HEK-293T, 40 min, TR-FRET; mean ± S.E.M., n at least 3
# T6 construct: expressed in transfected cells; host or cells: HEK-293T
# T6 sequence (P43220 24-463 E387A): as the sequence (P43220 24-463 W39A) above, with A16W, E364A counted along it
# Method: as §1, §2, §3, §4, §5, §6, §7, §8, §9, §10, §16, §17, §18, §12, §19, §20, §21, §22, §23, §24, §25, §26, §27, §15, §28
# [9] = target: T7, GLP-1R mutants (Homo sapiens, UniProt P43220, E364A); experiment: cAMP accumulation, single-point mutated GLP-1R; format: cell-based; conditions: GLP-1R E364(6.53b)A, HEK-293T, 40 min, TR-FRET, mean ± S.E.M., n at least 3
# T7 construct: expressed in transfected cells; host or cells: HEK-293T
# T7 sequence (P43220 24-463 E364A): as the sequence (P43220 24-463 W39A) above, with A16W, E341A counted along it
# Method: as §1, §2, §3, §4, §5, §6, §7, §8, §9, §10, §16, §17, §18, §12, §19, §20, §21, §22, §23, §24, §25, §26, §27, §15, §28
# [10] = target: T8, GLP-1R mutants (Homo sapiens, UniProt P43220, Y145Q); experiment: cAMP accumulation, single-point mutated GLP-1R; format: cell-based; conditions: GLP-1R Y145(1.40b)Q, HEK-293T, 40 min, TR-FRET, mean ± S.E.M., n at least 3
# T8 construct: expressed in transfected cells; host or cells: HEK-293T
# T8 sequence (P43220 24-463 Y145Q): as the sequence (P43220 24-463 W39A) above, with A16W, Y122Q counted along it
# Method: as §1, §2, §3, §4, §5, §6, §7, §8, §9, §10, §16, §17, §18, §12, §19, §20, §21, §22, §23, §24, §25, §26, §27, §15, §28
# [11] = target: T9, GLP-1R mutants (Homo sapiens, UniProt P43220, W214A); experiment: cAMP accumulation, single-point mutated GLP-1R; format: cell-based; conditions: GLP-1R W214(ECL1)A; HEK-293T, 40 min, TR-FRET; mean ± S.E.M., n at least 3
# T9 construct: expressed in transfected cells; host or cells: HEK-293T
# T9 sequence (P43220 24-463 W214A): as the sequence (P43220 24-463 W39A) above, with A16W, W191A counted along it
# Method: as §1, §2, §3, §4, §5, §6, §7, §8, §9, §10, §16, §17, §18, §12, §19, §20, §21, §22, §23, §24, §25, §26, §27, §15, §28
# [12] = target: T10, GLP-1R mutants (Homo sapiens, UniProt P43220, Y205A); experiment: cAMP accumulation, single-point mutated GLP-1R; format: cell-based; conditions: GLP-1R Y205(2.75b)A, HEK-293T, 40 min, TR-FRET, mean ± S.E.M., n at least 3
# T10 construct: expressed in transfected cells; host or cells: HEK-293T
# T10 sequence (P43220 24-463 Y205A): as the sequence (P43220 24-463 W39A) above, with A16W, Y182A counted along it
# Method: as §1, §2, §3, §4, §5, §6, §7, §8, §9, §10, §16, §17, §18, §12, §19, §20, §21, §22, §23, §24, §25, §26, §27, §15, §28
# [13] = target: T11, GCGR (Homo sapiens, UniProt P47871); experiment: cAMP accumulation, wild-type GCGR; format: cell-based; conditions: HEK-293T, 40 min, TR-FRET, mean ± S.E.M.
# T11 construct: expressed in transfected cells; host or cells: HEK-293T
# T11 sequence (P47871 26-477): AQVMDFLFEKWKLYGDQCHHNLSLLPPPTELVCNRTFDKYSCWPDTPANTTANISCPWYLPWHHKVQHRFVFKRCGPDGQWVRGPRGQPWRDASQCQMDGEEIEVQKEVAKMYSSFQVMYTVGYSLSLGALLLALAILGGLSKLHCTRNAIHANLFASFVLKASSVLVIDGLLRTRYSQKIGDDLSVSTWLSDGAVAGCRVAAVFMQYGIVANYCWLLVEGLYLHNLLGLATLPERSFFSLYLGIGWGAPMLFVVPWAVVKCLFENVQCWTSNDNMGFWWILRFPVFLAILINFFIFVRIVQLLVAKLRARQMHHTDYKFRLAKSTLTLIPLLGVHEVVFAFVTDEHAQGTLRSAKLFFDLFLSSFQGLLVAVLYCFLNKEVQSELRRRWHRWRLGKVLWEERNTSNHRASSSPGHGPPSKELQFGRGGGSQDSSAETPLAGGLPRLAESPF
# Method: as §1, §2, §3, §4, §5, §6, §7, §8, §9, §10, §11, §12, §13, §14, §15
# T1 sequence (P43220 24-463): as the sequence (P43220 24-463 W39A) above, with A16W counted along it
smiles,measurement,setting,value
CC[C@H](C)[C@H](NC(=O)[C@H](Cc1ccccc1)NC(=O)[C@H](C)NC(=O)C(C)(C)NC(=O)[C@H](CCC(N)=O)NC(=O)[C@H](C)NC(=O)[C@H](CCCCNC(=O)COCCOCCNC(=O)CC[C@H](NC(=O)CCCCCCCCCCCCCCCCCCC(=O)O)C(=O)O)NC(=O)[C@H](CCCCN)NC(=O)[C@H](CC(=O)O)NC(=O)[C@H](CC(C)C)NC(=O)[C@](C)(CC(C)C)NC(=O)[C@@H](NC(=O)[C@H](CO)NC(=O)[C@H](Cc1ccc(O)cc1)NC(=O)[C@H](CC(=O)O)NC(=O)[C@H](CO)NC(=O)[C@@H](NC(=O)[C@H](Cc1ccccc1)NC(=O)[C@@H](NC(=O)CNC(=O)[C@H](CCC(N)=O)NC(=O)C(C)(C)NC(=O)[C@@H](N)Cc1ccc(O)cc1)[C@@H](C)O)[C@@H](C)O)[C@@H](C)CC)C(=O)N[C@@H](CCC(=O)O)C(=O)N[C@@H](Cc1ccc(O)cc1)C(=O)N[C@@H](CC(C)C)C(=O)N[C@@H](CC(C)C)C(=O)N[C@@H](CCC(=O)O)C(=O)NCC(=O)NCC(=O)N1CCC[C@H]1C(=O)N[C@@H](CO)C(=O)N[C@@H](CO)C(=O)NCC(=O)N[C@@H](C)C(=O)N1CCC[C@H]1C(=O)N1CCC[C@H]1C(=O)N1CCC[C@H]1C(=O)N[C@@H](CO)C(N)=O [retatrutide],Emax ± S.E.M. (% WT),"[1]; 40 min, n at least 3",100.00 ± 2.75 % WT
same,EC50,"[1]; 40 min stimulation, at least 3 independent experiments in quadruplicate",0.00891 nM
same,body weight reduction,"[2]; 3 mg group, ref Urva S et al (supplement ref 18)",–4.71 kg
same,decrease in body weight (up to),[2]; 4.5 mg,–2.93 kg
same,decrease in body weight (up to),[2]; 6 mg,–3.52 kg
same,body weight reduction,"[2]; 3/6 mg group, ref Urva S et al (supplement ref 18)",–7.83 kg
same,fasting and postprandial plasma glucose and HbA1c,"[2]; compared to placebo, ref Urva S et al (supplement ref 18)",clinically decreases
same,severity of most treatment-related adverse events,"[2]; human, in vivo",mild
same,glycemic control,[2]; ref Urva S et al (supplement ref 18),showed glycemic control efficacy
same,Emax ± S.E.M. (% WT),[3],101.39 ± 3.58 % WT
same,EC50,[3]; **P < 0.01,0.0389 nM
same,Emax ± S.E.M. (% WT),[4],101.97 ± 3.92 % WT
same,EC50,[4]; ***P < 0.001,0.0417 nM
same,change of retatrutide potency by mutation,[5],modestly increased
same,Emax ± S.E.M. (% WT),[6],102.36 ± 4.73 % WT
same,EC50,[6]; ****P < 0.0001,0.0832 nM
same,EC50,[7],0.00355 nM
same,Emax ± S.E.M. (% WT),[7],100.84 ± 3.40 % WT
same,EC50,[8],0.00933 nM
same,Emax ± S.E.M. (% WT),[8],100.40 ± 3.44 % WT
same,Emax ± S.E.M. (% WT),[9],98.84 ± 4.77 % WT
same,EC50,[9]; ***P < 0.001,0.0407 nM
same,EC50,[10]; ****P < 0.0001,0.355 nM
same,Emax ± S.E.M. (% WT),[10]; ***P < 0.001,73.89 ± 5.95 % WT
same,EC50,[11],0.00562 nM
same,Emax ± S.E.M. (% WT),[11],100.98 ± 3.27 % WT
same,Emax ± S.E.M. (% WT),[12],101.35 ± 4.70 % WT
same,EC50,[12]; **P < 0.01,0.0389 nM
same,EC50,"[13]; GCGR WT, at least 3 independent experiments in quadruplicate",0.00708 nM
same,Emax ± S.E.M. (% WT),[13]; n at least 3,100.00 ± 1.46 % WT
